Laboratory results as given in publication PMC5983371 (Experimental eye research, 2018).

Target: rhodopsin (light-activated, metarhodopsin II) (Bos taurus, UniProt P02699)
Test: UV/Visible extra Meta II stabilization assay
Type: binding

Chain of rhodopsin (light-activated, metarhodopsin II) (P02699 whole entry): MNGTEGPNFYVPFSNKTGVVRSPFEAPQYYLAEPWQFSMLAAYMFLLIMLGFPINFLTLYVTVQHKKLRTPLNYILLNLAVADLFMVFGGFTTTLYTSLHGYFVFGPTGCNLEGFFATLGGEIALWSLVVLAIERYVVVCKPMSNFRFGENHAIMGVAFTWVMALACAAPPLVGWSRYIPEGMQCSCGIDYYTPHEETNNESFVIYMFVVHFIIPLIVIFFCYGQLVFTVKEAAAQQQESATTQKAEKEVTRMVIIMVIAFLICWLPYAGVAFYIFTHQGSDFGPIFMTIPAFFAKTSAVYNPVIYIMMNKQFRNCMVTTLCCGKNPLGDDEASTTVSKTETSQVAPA

C[C@H](CCC(=O)NCCS(=O)(=O)O)[C@H]1CC[C@H]2[C@@H]3[C@@H](O)C[C@@H]4C[C@H](O)CC[C@]4(C)[C@H]3CC[C@]12C [TUDCA, Tauroursodeoxycholic acid]
EC50: 450 µM
